Measured values: patent US9149038B2, “4-amino-6-(heterocyclic)picolinates and 6-amino-2-(heterocyclic)pyrimidine-4-carboxylates and their use as herbicides” (Dow AgroSciences LLC, priority 2013, dated 2015)
Read-outs that look alike come from different tables or passages of the source.

Experiments:
[1] = test system: Key Broadleaf Weed and Crop Species; experiment: Post-Emergent Test II: postemergent herbicidal activity, visual rating after 14 d (Table 7); assay type: in vivo; details: post-emergence, 336 h; for pest or weed control at 35 g/ha: 35 g ai/ha; for pest or weed control at 70 g/ha: 70 g ai/ha; for pest or weed control at 140 g/ha: 140 g ai/ha
Outline: (§1)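 Post-emergence foliar spray, 187 L/ha, first/second true leaf stage plants in potting mix (pH 6.0-6.8). Rates: top rate and 2-fold serial dilutions to 1/16×. Solvent-blank controls. Readout: visual % kill at 14 d.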

[2] = test system: Key Grass and Sedge Weeds as well as Grass Crops; experiment: Post-Emergent Test II: postemergent herbicidal activity, visual rating after 14 d (Table 8); assay type: in vivo; details: post-emergence, 336 h; for pest or weed control at 35 g/ha: 35 g ai/ha; for pest or weed control at 70 g/ha: 70 g ai/ha; for pest or weed control at 140 g/ha: 140 g ai/ha
Outline: as §1

[3] = lambsquarters (Chenopodium album), read-out: Visual Growth Reduction (%) 14 Days After Application CHEAL
[4] = oilseed rape, canola (Brassica napus), read-out: Visual Growth Reduction (%) 14 Days After Application BRSNN
[5] = redroot pigweed (Amaranthus retroflexus), read-out: Visual Growth Reduction (%) 14 Days After Application AMARE
[6] = sunflower (Helianthus annuus), read-out: Visual Growth Reduction (%) 14 Days After Application HELAN
[7] = velvetleaf (Abutilon theophrasti), read-out: Visual Growth Reduction (%) 14 Days After Application ABUTH
[8] = wild poinsettia (Euphorbia heterophylla), read-out: Visual Growth Reduction (%) 14 Days After Application EPHHL
[9] = barnyardgrass (Echinochloa crus-galli), read-out: Visual Growth Reduction (%) 14 Days After Application ECHCG
[10] = giant foxtail (Setaria faberi), read-out: Visual Growth Reduction (%) 14 Days After Application SETFA
[11] = maize, corn (Zea mays), read-out: Visual Growth Reduction (%) 14 Days After Application ZEAMX
[12] = rice (Oryza sativa), read-out: Visual Growth Reduction (%) 14 Days After Application ORYSA
[13] = wheat, spring (Triticum aestivum), read-out: Visual Growth Reduction (%) 14 Days After Application TRZAS
[14] = yellow nutsedge (Cyperus esculentus), read-out: Visual Growth Reduction (%) 14 Days After Application CYPES

Question: How did the pest or weed control at 35 g/ha [1, 3] turn out when COC(=O)c1nc(-c2ccc(Cl)c3c2OC(F)(F)O3)c(F)c(N)c1Cl [Compound 75] was run?
Answer: 95 to 100%

Question: What about the pest or weed control at 70 g/ha [1, 3] of the same compound?
Answer: 95 to 100%

Question: What about the pest or weed control at 140 g/ha [1, 3] of the same compound?
Answer: 95 to 100%

Question: And the pest or weed control at 35 g/ha [1, 4]?
Answer: 75 to 84%

Question: And the pest or weed control at 70 g/ha [1, 4]?
Answer: 85 to 94%

Question: What about the pest or weed control at 140 g/ha [1, 4] of the same compound?
Answer: 95 to 100%

Question: What about the pest or weed control at 35 g/ha [1, 5] of the same compound?
Answer: 95 to 100%

Question: And the pest or weed control at 70 g/ha [1, 5]?
Answer: 95 to 100%

Question: What about the pest or weed control at 140 g/ha [1, 5] of the same compound?
Answer: 95 to 100%

Question: What about the pest or weed control at 35 g/ha [1, 6] of the same compound?
Answer: 95 to 100%

Question: And the pest or weed control at 70 g/ha [1, 6]?
Answer: 95 to 100%

Question: And the pest or weed control at 140 g/ha [1, 6]?
Answer: 95 to 100%

Question: What about the pest or weed control at 35 g/ha [1, 7] of the same compound?
Answer: 85 to 94%

Question: And the pest or weed control at 70 g/ha [1, 7]?
Answer: 95 to 100%

Question: What about the pest or weed control at 140 g/ha [1, 7] of the same compound?
Answer: 95 to 100%

Question: What about the pest or weed control at 35 g/ha [1, 8] of the same compound?
Answer: 0 to 29%

Question: What about the pest or weed control at 70 g/ha [1, 8] of the same compound?
Answer: 0 to 29%

Question: What about the pest or weed control at 140 g/ha [1, 8] of the same compound?
Answer: 0 to 29%

Question: What about the pest or weed control at 35 g/ha [2, 9] of the same compound?
Answer: 0 to 29%

Question: What about the pest or weed control at 70 g/ha [2, 9] of the same compound?
Answer: 0 to 29%

Question: And the pest or weed control at 140 g/ha [2, 9]?
Answer: 0 to 29%

Question: What about the pest or weed control at 35 g/ha [2, 10] of the same compound?
Answer: 0 to 29%

Question: What about the pest or weed control at 70 g/ha [2, 10] of the same compound?
Answer: 0 to 29%

Question: And the pest or weed control at 140 g/ha [2, 10]?
Answer: 0 to 29%

Question: What about the pest or weed control at 35 g/ha [2, 11] of the same compound?
Answer: 95 to 100%

Question: And the pest or weed control at 70 g/ha [2, 11]?
Answer: 95 to 100%

Question: What about the pest or weed control at 140 g/ha [2, 11] of the same compound?
Answer: 95 to 100%

Question: And the pest or weed control at 35 g/ha [2, 12]?
Answer: 0 to 29%

Question: What about the pest or weed control at 70 g/ha [2, 12] of the same compound?
Answer: 0 to 29%

Question: What about the pest or weed control at 140 g/ha [2, 12] of the same compound?
Answer: 0 to 29%

Question: And the pest or weed control at 35 g/ha [2, 13]?
Answer: 0 to 29%

Question: What about the pest or weed control at 70 g/ha [2, 13] of the same compound?
Answer: 0 to 29%

Question: What about the pest or weed control at 140 g/ha [2, 13] of the same compound?
Answer: 0 to 29%

Question: What about the pest or weed control at 35 g/ha [2, 14] of the same compound?
Answer: 0 to 29%

Question: What about the pest or weed control at 70 g/ha [2, 14] of the same compound?
Answer: 0 to 29%

Question: What about the pest or weed control at 140 g/ha [2, 14] of the same compound?
Answer: 45 to 59%
